Results reported in patent publication US8518953B2, “Aminopyrimidines useful as inhibitors of protein kinases” (Vertex Pharmaceuticals Incorporated, priority 2007, dated 2013).

How the values were obtained:
GSK3α TYR 279 = target: T1, GSK3α TYR 279 (Homo sapiens, UniProt P49840); experiment: GSK-3α p-TYR Inhibition Assay (western blotting of Jurkat cells); assay type: cell-based; conditions: western blot, read-out: GSK3a pTYR 279: IC50
T1 construct: western blotting of Jurkat cells dosed with the compounds; endogenous in cells; host or cells: Jurkat cells
Method: Compounds are screened for their ability to inhibit the phosphorylation of tyrosine (TYR) residues through the use of western blotting of Jurkat cells dosed with the compounds. The phosphorylation of the specific TYR residues tested are GSK3α TYR 279 and GSK3β TYR 216.
Jurkat cells are seeded at a density of 2×10^5 cells/well in a 12 well dish in starvation media (RPMI+1% FBS+P/S). Following starvation for 16 hours, the compound is dosed into each well at a final DMSO concentration of 0.3% and cells are incubated o/n at 37° C. 5% CO2. The next day, cells are spun down at 1500 rpm, washed with PBS, and lysed in 100 uL Laemli sample buffer with β-mercaptoethanol.
15 microliters (uL) of cell lysates are loaded onto a 10% tris-glycine gel and run at 120 v for 2 hours or until dye front runs off of the gel. The protein is then transferred onto a PVDF membrane at 100 v for 60 min. PBST (PBS containing 0.1% Tween 20, such as 1 ml Tween per 1 L of PBS) is then made up and used for all washes and antibody incubations. The blot is blocked in 5% nonfat milk PBST for one hour.
The primary antibody (GSK-3α/β pTYR 279/216 at 1:1000 dilution Upstate cat#05-413) is then added in […] PBST overnight at 4° C. with gentle rocking. The blot is then washed in PBST for 5 min. This is then repeated 4 times. […]

[1] = system: E16 rat hippocampal or cortical neurons; experiment: Axonal Branching Assay; assay type: cell-based
Method: Compounds are tested for the ability to enhance axonal branching in E16 rat hippocampal or cortical neurons. 1 mg/ml stock of PDL is diluted into 100 μg/ml in DI water. The glass coverslips are coated for at least 1 hour at 37° C. prior to doing the dissection. PDL is aspirated and the plates are rinsed with PBS and air-dried in hood. Cortical or hippocampal lobes are combined with 9 mL of Base media (Neurobasal+Pen/Strep) and put on ice. 1 mL of 10× trypsin solution is added and the mixture is swirled gently. The tissue is then digested via incubation in a 37° C. waterbath for 20 minutes. After 20 minutes, 10 μl/ml DNase (100 μL DNase) is added and the mixture is incubated for another 5 minutes. The cells are spun at 1000 rpm for 1 minute. The enzyme solution is then removed without removing any of the brain fragments sitting on the bottom. The solid is washed 3 times with Wash media (Neurobasal+10% and Pen/Strep). […] The cells are counted in a hemacytometer and seeded at 5000-10000 cells/well in a 24 well plate with glass coverslip inserts coated with PDL. […] Images are captured at 10× and 20× on an upright microscope and axonal branching is determined by quantification of area under threshold fluorescence of neurofilament Alexa 488 per cell. Dendritic branching is determined by quantification of area under threshold fluorescence of MAP2 Alexa 568 per cell. […]

T1 sequence (P49840 whole entry): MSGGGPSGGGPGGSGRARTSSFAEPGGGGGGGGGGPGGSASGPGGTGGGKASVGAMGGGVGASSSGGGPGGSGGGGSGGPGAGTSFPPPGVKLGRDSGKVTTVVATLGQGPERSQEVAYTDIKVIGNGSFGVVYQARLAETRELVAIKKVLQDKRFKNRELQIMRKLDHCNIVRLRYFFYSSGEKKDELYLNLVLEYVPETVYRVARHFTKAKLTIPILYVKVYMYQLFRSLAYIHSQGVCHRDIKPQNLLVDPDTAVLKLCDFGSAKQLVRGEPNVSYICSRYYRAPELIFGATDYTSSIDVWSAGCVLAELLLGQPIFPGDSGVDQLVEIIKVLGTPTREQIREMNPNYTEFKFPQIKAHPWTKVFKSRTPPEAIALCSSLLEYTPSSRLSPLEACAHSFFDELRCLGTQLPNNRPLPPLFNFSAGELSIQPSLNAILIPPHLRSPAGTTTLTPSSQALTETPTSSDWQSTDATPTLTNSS

IC50 (GSK3α TYR 279): < 0.5 nM
Structure (SMILES): Cc1nc(-c2ccccc2Cl)nc(Nc2n[nH]c3ncc(F)cc23)c1C [Compound I-1, N-(2-(2-chlorophenyl)-5,6-dimethylpyrimidin-4-yl)-5-fluoro-1H-pyrazolo[3,4-b]pyridin-3-amine]
axonal and dendritic branching ([1]; 10 nM, 7 days): increased axonal and dendritic branching
axon growth ([1]; concentrations that have been shown to induce β-catenin): axon growth was inhibited
